Laboratory results reported in patent publication US8063071B2 (GlaxoSmithKline, LLC, priority 2007, dated 2011).
Counter-ions that a name gives are not always drawn.

How the values were obtained:
[1] = molecular target: T1, Recombinant human IKKβ (residues 1-737) (Homo sapiens, UniProt O14920); assay: IKK2 assay (TR-FRET); assay type: biochemical; conditions: ATP 1 μM final, read-out: pIC50 against IKK2 (converted)
T1 construct: Recombinant human IKKβ (residues 1-737); GST (C); made in house
T1 sequence (O14920 1-737): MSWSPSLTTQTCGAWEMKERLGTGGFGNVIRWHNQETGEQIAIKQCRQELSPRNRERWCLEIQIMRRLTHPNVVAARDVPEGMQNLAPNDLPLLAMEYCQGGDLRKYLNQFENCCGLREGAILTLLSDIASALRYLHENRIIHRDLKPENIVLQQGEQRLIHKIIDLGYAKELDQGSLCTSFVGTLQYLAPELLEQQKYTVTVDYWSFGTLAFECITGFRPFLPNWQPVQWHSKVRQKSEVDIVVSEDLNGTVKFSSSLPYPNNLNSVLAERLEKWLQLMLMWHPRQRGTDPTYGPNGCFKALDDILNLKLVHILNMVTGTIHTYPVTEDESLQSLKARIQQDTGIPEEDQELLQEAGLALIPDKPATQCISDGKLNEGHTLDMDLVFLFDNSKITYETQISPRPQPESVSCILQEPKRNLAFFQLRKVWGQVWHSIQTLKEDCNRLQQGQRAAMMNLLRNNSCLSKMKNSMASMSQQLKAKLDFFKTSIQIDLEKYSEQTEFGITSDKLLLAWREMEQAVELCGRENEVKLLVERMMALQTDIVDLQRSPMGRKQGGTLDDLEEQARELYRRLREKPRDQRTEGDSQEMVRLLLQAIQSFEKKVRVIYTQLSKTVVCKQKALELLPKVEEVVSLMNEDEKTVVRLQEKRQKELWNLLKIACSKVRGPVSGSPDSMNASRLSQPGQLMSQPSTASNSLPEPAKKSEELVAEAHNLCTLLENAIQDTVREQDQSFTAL
Method in brief: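 TR-FRET readout (665 nm over 620 nm Eu reference) of GST-IB Ser32/36 phosphorylation after 60 min detection. Reaction: 1 μM ATP, 25 nM substrate, 0.5-5 nM GST-fused IKKβ 1-737 from baculovirus, pH 7.4 HEPES buffer, 1.7% DMSO, 15 min room temperature, EDTA-terminated.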

[2] = test system: human monocyte stimulated cytokine production (TNF-α); assay: Monocyte assay (LPS-stimulated TNF-α production); assay type: cell-based; conditions: for IC50: 24 h, 200 ng/mL LPS, TNF-α by ELISA; for inhibition at 0.3 µM: read-out: inhibition at 300 nM in the monocyte assay
Method in brief: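 TNF-α release was measured by ELISA after 24 hrs at 37 C. Cells were stimulated with 200 ng/mL E. coli LPS, with compound added 30 minutes beforehand (0.1% DMSO vehicle). Cells were Ficoll/MACS-isolated CD14+ human monocytes adhered at 1×10^6 cells/mL, and viability was checked by trypan blue.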

Row | IC50 [1] | IC50 [2] | SMILES | inhibition at 0.3 µM [2]
1 | ≤ 10 µM | > 1 µM | CCS(=O)(=O)N1CCC(c2c[nH]c3c(C(N)=O)cc(-c4cccc(CNC(=O)c5ccc(F)cc5)c4)cc23)CC1 [Example 360, 3-[1-(ethylsulfonyl)-4-piperidinyl]-5-[3-({[(4-fluorophenyl)carbonyl]amino}methyl)phenyl]-1H-indole-7-carboxamide trifluoroacetate] | 
2 | ≤ 10 µM | ≤ 1.5 µM | CCCN(C)Cc1cc(-c2cc(C(N)=O)c3[nH]cc(C4CCN(S(=O)(=O)CC)CC4)c3c2)cs1 [Example 68, 3-[1-(ethylsulfonyl)-4-piperidinyl]-5-(5-{[methyl(propyl)amino]methyl}-3-thienyl)-1H-indole-7-carboxamide trifluoroacetate] | 
3 | ≤ 10 µM | ≤ 1.5 µM | COCCN(C)Cc1cc(-c2cc(C(N)=O)c3[nH]cc(C4CCN(S(=O)(=O)C(C)C)CC4)c3c2)cs1 [Example 102, 3-{1-[(1-methylethyl)sulfonyl]-4-piperidinyl}-5-[5-({methyl[2-(methyloxy)ethyl]amino}methyl)-3-thienyl]-1H-indole-7-carboxamide] | 
4 | ≤ 10 µM | ≤ 1.5 µM | CCS(=O)(=O)N1CCC(c2c[nH]c3c(C(N)=O)cc(-c4cccc(CCN(C)C)c4)cc23)CC1 [Example 348, 5-{3-[2-(dimethylamino)ethyl]phenyl}-3-[1-(ethylsulfonyl)-4-piperidinyl]-1H-indole-7-carboxamide trifluoroacetate] | 
5 | ≤ 10 µM | ≤ 1.5 µM | CCS(=O)(=O)N1CCC(c2c[nH]c3c(C(N)=O)cc(-c4cc(CN5CCC[C@H]5COC)cs4)cc23)CC1 [Example 215, 3-[1-(ethylsulfonyl)-4-piperidinyl]-5-[4-({(2S)-2-[(methyloxy)methyl]-1-pyrrolidinyl}methyl)-2-thienyl]-1H-indole-7-carboxamide trifluoroacetate] | 
6 | ≤ 10 µM | ≤ 1.5 µM | C=CCN(C)Cc1cc(-c2cc(C(N)=O)c3[nH]cc(C4CCN(S(=O)(=O)CC)CC4)c3c2)cs1 [Example 399, 3-[1-(ethylsulfonyl)-4-piperidinyl]-5-(5-{[methyl(2-propen-1-yl)amino]methyl}-3-thienyl)-1H-indole-7-carboxamide] | 
7 | ≤ 10 µM | > 1 µM | CCS(=O)(=O)N1CCC(c2c[nH]c3c(C(N)=O)cc(-c4ccc(CN[C@@H](C)C(C)(C)C)s4)cc23)CC1 [Example 200, 3-[1-(ethylsulfonyl)-4-piperidinyl]-5-[5-({[(1S)-1,2,2-trimethylpropyl]amino}methyl)-2-thienyl]-1H-indole-7-carboxamide] | 
8 | ≤ 10 µM | ≤ 1.5 µM | CCS(=O)(=O)N1CCC(c2c[nH]c3c(C(N)=O)cc(-c4cccc(CNC5CC5)c4)cc23)CC1 [Example 31, 5-{3-[(cyclopropylamino)methyl]phenyl}-3-[1-(ethylsulfonyl)-4-piperidinyl]-1H-indole-7-carboxamide] | 
9 | ≤ 10 µM | ≤ 1.5 µM | CCS(=O)(=O)N1CCC(c2c[nH]c3c(C(N)=O)cc(-c4cccc(CNC[C@@H]5CCCO5)c4)cc23)CC1 [Example 307, 3-[1-(ethylsulfonyl)-4-piperidinyl]-5-[3-({[(2S)-tetrahydro-2-furanylmethyl]amino}methyl)phenyl]-1H-indole-7-carboxamide trifluoroacetate] | 

Continued, compound first:

Row | SMILES | IC50 [1] | IC50 [2] | inhibition at 0.3 µM [2]
10 | CCC(C)NCc1cc(F)cc(-c2cc(C(N)=O)c3[nH]cc(C4CCN(S(=O)(=O)CC)CC4)c3c2)c1 (stereo not shown) [Example 316, 3-[1-(ethylsulfonyl)-4-piperidinyl]-5-(3-fluoro-5-{[(1-methylpropyl)amino]methyl}phenyl)-1H-indole-7-carboxamide trifluoroacetate] | ≤ 10 µM | ≤ 1.5 µM | 
11 | CCS(=O)(=O)N1CCC(c2c[nH]c3c(C(N)=O)cc(-c4cncc(CN(C)C)c4)cc23)CC1 [Example 178, 5-{5-[(dimethylamino)methyl]-3-pyridinyl}-3-[1-(ethylsulfonyl)-4-piperidinyl]-1H-indole-7-carboxamide] | ≤ 10 µM |  | 0 to 60%
12 | CCS(=O)(=O)N1CCC(c2c[nH]c3c(C(N)=O)cc(-c4csc(CN5CCCC5C(C)(C)C)c4)cc23)CC1 (stereo not shown) [Example 91, 5-(5-{[2-(1,1-dimethylethyl)-1-pyrrolidinyl]methyl}-3-thienyl)-3-[1-(ethylsulfonyl)-4-piperidinyl]-1H-indole-7-carboxamide trifluoroacetate] | ≤ 10 µM |  | 0 to 60%
13 | CCS(=O)(=O)N1CCC(c2c[nH]c3c(C(N)=O)cc(-c4cc(CNCCC#N)ccc4F)cc23)CC1 [Example 35, 5-(5-{[(2-cyanoethyl)amino]methyl}-2-fluorophenyl)-3-[1-(ethylsulfonyl)-4-piperidinyl]-1H-indole-7-carboxamide trifluoroacetate] | ≤ 10 µM | > 1 µM | 
14 | CCS(=O)(=O)N1CCC(c2c[nH]c3c(C(N)=O)cc(-c4cccc(CNC[C@H](C)O)c4)cc23)CC1 [Example 22, 3-[1-(ethylsulfonyl)-4-piperidinyl]-5-[3-({[(2S)-2-hydroxypropyl]amino}methyl)phenyl]-1H-indole-7-carboxamide] | ≤ 10 µM | ≤ 1.5 µM | 
15 | CCS(=O)(=O)N1CCC(c2c[nH]c3c(C(N)=O)cc(-c4ccnc(N5CCOCC5)c4)cc23)CC1 [Example 204, 3-[1-(ethylsulfonyl)-4-piperidinyl]-5-[2-(4-morpholinyl)-4-pyridinyl]-1H-indole-7-carboxamide trifluoroacetate] | ≤ 10 µM | > 1 µM | 
16 | CCN(CC)Cc1ccc(-c2cc(C(N)=O)c3[nH]cc(C4CCN(S(=O)(=O)CC)CC4)c3c2)s1 [Example 242, 5-{5-[(diethylamino)methyl]-2-thienyl}-3-[1-(ethylsulfonyl)-4-piperidinyl]-1H-indole-7-carboxamide trifluoroacetate] | ≤ 10 µM | ≤ 1.5 µM | 
17 | CCS(=O)(=O)N1CCC(c2c[nH]c3c(C(N)=O)cc(-c4cccc(CNC(C)CO)c4)cc23)CC1 (stereo not shown) [Example 19, 3-[1-(ethylsulfonyl)-4-piperidinyl]-5-(3-{[(2-hydroxy-1-methylethyl)amino]methyl}phenyl)-1H-indole-7-carboxamide] | ≤ 10 µM | ≤ 1.5 µM | 
18 | CCN(CC)Cc1cc(-c2cc(C(N)=O)c3[nH]cc(C4CCN(S(=O)(=O)CC)CC4)c3c2)co1 [Example 248, 5-{5-[(diethylamino)methyl]-3-furanyl}-3-[1-(ethylsulfonyl)-4-piperidinyl]-1H-indole-7-carboxamide trifluoroacetate] | ≤ 10 µM | ≤ 1.5 µM | 
19 | CCS(=O)(=O)N1CCC(c2c[nH]c3c(C(N)=O)cc(-c4csc(CN(C)CCO)c4)cc23)CC1 [Example 75, 3-[1-(ethylsulfonyl)-4-piperidinyl]-5-(5-{[(2-hydroxyethyl)(methyl)amino]methyl}-3-thienyl)-1H-indole-7-carboxamide trifluoroacetate] | ≤ 10 µM | ≤ 1.5 µM | 
20 | CCS(=O)(=O)N1CCC(c2c[nH]c3c(C(N)=O)cc(-c4cccc(CNC(=O)C5CCN(C(C)=O)CC5)c4)cc23)CC1 [Example 364, 5-[3-({[(1-acetyl-4-piperidinyl)carbonyl]amino}methyl)phenyl]-3-[1-(ethylsulfonyl)-4-piperidinyl]-1H-indole-7-carboxamide] | ≤ 10 µM | ≤ 1.5 µM | 
21 | CCCC(C)NCc1cccc(-c2cc(C(N)=O)c3[nH]cc(C4CCN(S(=O)(=O)CC)CC4)c3c2)c1 (stereo not shown) [Example 154, 3-[1-(ethylsulfonyl)-4-piperidinyl]-5-(3-{[(1-methylbutyl)amino]methyl}phenyl)-1H-indole-7-carboxamide trifluoroacetate] | ≤ 10 µM | ≤ 1.5 µM | 
22 | CCS(=O)(=O)N1CCC(c2c[nH]c3c(C(N)=O)cc(-c4csc(CNCC5CCOCC5)c4)cc23)CC1 [Example 120, 3-[1-(ethylsulfonyl)-4-piperidinyl]-5-(5-{[(tetrahydro-2H-pyran-4-ylmethyl)amino]methyl}-3-thienyl)-1H-indole-7-carboxamide trifluoroacetate] | ≤ 10 µM | ≤ 1.5 µM | 
23 | CCS(=O)(=O)N1CCC(c2c[nH]c3c(C(N)=O)cc(-c4ccc(CNCC5CCCCC5)s4)cc23)CC1 [Example 195, 5-(5-{[(cyclohexylmethyl)amino]methyl}-2-thienyl)-3-[1-(ethylsulfonyl)-4-piperidinyl]-1H-indole-7-carboxamide] | ≤ 10 µM |  | 0 to 60%
